Experimental findings from patent publication US20070149480A1 (Alcon, Inc., priority 2005, published 2007) are described below.

The structures appear in SMILES notation. pIC50: −log10 of the molar value. In brackets after ≈: the same amount, converted by molar mass.

One series concerns FGFR. The experiment in a line: Kinase inhibition, cell-free enzymatic assay. The class given is biochemical. As to conditions: 1 mM ATP. The procedure: All data reported as IC50 values for kinase inhibition in cell-free enzymatic assays; ND denotes no data. Values determined @ 1 mM ATP.
Series [1] can be described thus: Solubility of RTKi in phosphate buffer vehicle containing hydroxypropyl cyclodextrin (HPCD). As to conditions: for solubility enhancement: 10% HPCD in phosphate buffer vs phosphate buffer alone; for solubility: RTKi Solubility. The class given is physicochemical. From the text:
(§1) The present inventors have discovered that use of cyclodextrin derivatives to solubilize highly insoluble anti-angiogenic active compounds provides an efficacious ophthalmic formulation. […] Prototype intravitreal vehicle is shown in Example 1, and intravitreal and PJ formulations of the active compound containing HPCD are provided in Examples 2 and 3, respectively.
Solubility of RTKi in phosphate buffer vehicle containing various amount of hydroxypropyl cyclodextrin (HPCD).

The nature of series [2]: Solubility of RTKi in phosphate buffer vehicle containing sulfobutylether beta cyclodextrin (SBCD). The series is classed as physicochemical. The note with it: for solubility: RTKi Solubility.
Source text: as §1

Broadly, the pIC50 is the negative decadic logarithm of the IC50, by convention in mol/L. The low end stands for a large IC50, the high end for a small IC50. The solubility is how much of the substance goes into solution per volume.

Consider `Cc1ccc(F)c(NC(=O)Nc2ccc(-c3cccc4[nH]nc(N)c34)cc2)c1` [RTKi, N-[4-(3-amino-1H-indazol-4-yl)phenyl]-N′-(2-fluoro-5-methylphenyl) urea], for which the pIC50 in the series with FGFR is under 4.90. The “RTKi Solubility” value turned out to be 1098.8 µg/mL in series [1] (10% HPCD Phosphate Buffer) and 2526.5 µg/mL in series [2] (10% SBCD Phosphate Buffer). In addition, the “solubility expressed as percent” value in series [1] (10% HPCD in phosphate buffer) was “about 0.1%”. Besides, the figures for the solubility enhancement entry in series [1] and in series [1] (listed as active compound) were “More than 1800 fold” and “approximately 1800 fold”, respectively. Moreover, the solubility is 0.59 µg/mL (≈ 1.57 µM) in series [1] (phosphate buffer (0% HPCD), pH 7.2, aqueous buffer, pH 7.2); 82.3 µg/mL (≈ 219 µM) in series [1] (phosphate buffer with 1% HPCD, pH 7.2, aqueous with cosolvent or surfactant or cyclodextrin, 1% HPCD in Phosphate Buffer); 527 µg/mL (≈ 1400 µM) in series [1] (phosphate buffer with 5% HPCD, pH 7.2, aqueous with cosolvent or surfactant or cyclodextrin, 5% HPCD Phosphate Buffer); 1090 µg/mL (≈ 2900 µM) in series [1] (phosphate buffer with 10% HPCD, pH 7.2, aqueous with cosolvent or surfactant or cyclodextrin, 10% HPCD Phosphate Buffer); 0.59 µg/mL (≈ 1.57 µM) in series [2] (phosphate buffer (0% SBCD), pH 7.2, aqueous buffer); 188 µg/mL (≈ 501 µM) in series [2] (phosphate buffer with 1% SBCD, pH 7.2, aqueous with cosolvent or surfactant or cyclodextrin, 1% SBCD in Phosphate Buffer). Further, the solubility in series [2] (phosphate buffer with 2.5% SBCD, pH 7.2, aqueous with cosolvent or surfactant or cyclodextrin, 2.5% SBCD Phosphate Buffer) is 641 µg/mL (≈ 1710 µM); in series [2] (phosphate buffer with 5% SBCD, pH 7.2, aqueous with cosolvent or surfactant or cyclodextrin, 5% SBCD Phosphate Buffer), 1090 µg/mL (≈ 2910 µM); in series [2] (phosphate buffer with 10% SBCD, pH 7.2, aqueous with cosolvent or surfactant or cyclodextrin, 10% SBCD Phosphate Buffer), 2520 µg/mL (≈ 6710 µM); in series [2] (phosphate buffer with 20% SBCD, pH 7.2, aqueous with cosolvent or surfactant or cyclodextrin, 20% SBCD Phosphate Buffer) it was 4120 µg/mL (≈ 11000 µM).
